Measurements published in ChEMBL document CHEMBL1201862, “PubChem BioAssay data set” (2004).
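96-well plates; 48 h exposure; 5 concentrations. Endpoints by linear interpolation between flanking doses. Not reached: highest tested concentration assigned. GI50 marks 50% less growth.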 The source made the active and inactive calls. No stated cut-off is given here; in the data, active = GI50 up to about 1.1 µM and inactive = higher.

Assays:
Test in all cases: NCI tumour cell line growth inhibition, 48 h
BT-549 = system: BT-549
DLD-1 = system: DLD-1
DMS-114 = system: DMS-114
HOP-18 = system: HOP-18
LXFL 529 = system: LXFL 529
SNB-78 = system: SNB-78
DMS-273 = system: DMS-273
RXF 631 = system: RXF 631
XF498 = system: XF498

| Compound | GI50 (BT-549) | GI50 (DMS-114) | GI50 (LXFL 529) | GI50 (SNB-78) | GI50 (DMS-273) | other results |
| --- | --- | --- | --- | --- | --- | --- |
| CCOC(=O)C1CCC(=O)N1C(=O)c1ccc(Cl)cc1 (stereo not drawn) | > 100 µM (inactive) | – | – | – | – | – |
| Cn1c(O)c(C(=O)Nc2cccs2)c(=O)[nH]c1=S | – | 14.5 µM (inactive) | 12.1 µM (inactive) | 18.9 µM (inactive) | – | GI50 (DLD-1): 21.2 µM (inactive); GI50 (HOP-18): 0.0865 µM (active) |
| N#CC1=C(N)N(c2ccccc2)C(c2ccco2)C1(C#N)C#N (stereo not drawn) | 18.8 µM (inactive) | – | – | – | – | – |
| CC(=O)n1c(=O)c2cc3c(=O)n(-c4cccc(C#N)c4)c(=O)c3cc2c1=O | – | > 100 µM (inactive) | > 100 µM (inactive) | 60.3 µM (inactive) | 88.1 µM (inactive) | GI50 (DLD-1): > 100 µM (inactive); GI50 (HOP-18): > 100 µM (inactive); GI50 (RXF 631): > 100 µM (inactive) |
| O=C(O)CCSC(=O)Nc1ccc([N+](=O)[O-])cc1 | – | > 100 µM (inactive) | > 100 µM (inactive) | > 100 µM (inactive) | > 100 µM (inactive) | GI50 (DLD-1): > 100 µM (inactive) |
| COC(=O)C(/C(=N/NC(N)=O)C(=O)Nc1c(C)cccc1C(C)(C)C)c1nc2ccc(Cl)cc2nc1O (stereo not drawn) | – | > 100 µM (inactive) | > 100 µM (inactive) | > 100 µM (inactive) | > 100 µM (inactive) | GI50 (DLD-1): > 100 µM (inactive); GI50 (HOP-18): > 100 µM (inactive); GI50 (XF498): > 100 µM (inactive) |
| COC(=O)c1c(O)ccc2c1c1c(n2Cc2ccc(OC)cc2)C(=O)c2ccccc2C1 | > 100 µM (inactive) | – | – | – | – | – |
| COc1ccc2[nH]c(Cl)c(/C=C3/C(=O)N(c4ccccc4)c4ccccc43)c2c1 | 2.67 µM (inactive) | – | – | – | – | – |
| OCC1CCCC(n2cnc3c(S)ncnc32)O1 (stereo not drawn) | > 100 µM (inactive) | – | – | – | – | – |
| Cc1nn(-c2ccccc2)c(-c2ccccc2[N+](=O)[O-])c1CC#N | – | 98.6 µM (inactive) | > 100 µM (inactive) | > 100 µM (inactive) | > 100 µM (inactive) | GI50 (RXF 631): > 100 µM (inactive); GI50 (XF498): 21.5 µM (inactive) |
| CC1=NN(c2ccccc2)C(=O)C1C(=O)C(=O)Nc1ccc(C)cc1C (stereo not drawn) | – | > 100 µM (inactive) | > 100 µM (inactive) | > 100 µM (inactive) | > 100 µM (inactive) | GI50 (DLD-1): > 100 µM (inactive); GI50 (HOP-18): > 100 µM (inactive) |
| Clc1ccc(-c2nnc(-c3nn(-c4ccccc4)c4nc5ccccc5nc34)o2)cc1 | – | 26.1 µM (inactive) | 27.2 µM (inactive) | > 100 µM (inactive) | 47.5 µM (inactive) | GI50 (DLD-1): 18.9 µM (inactive); GI50 (HOP-18): > 100 µM (inactive); GI50 (XF498): 13 µM (inactive) |
| COc1cc2c3c4[n+](cc2c(OC)c1OC)CCC4CCC3 (stereo not drawn) | > 100 µM (inactive) | – | – | – | – | – |
| C(=C\C(Sc1ccccc1)c1ccccc1)/NNC1=NN=C(c2ccccc2)C(c2ccccc2)N1 (stereo not drawn) | – | 35.8 µM (inactive) | – | > 100 µM (inactive) | 44.6 µM (inactive) | GI50 (DLD-1): 18.2 µM (inactive); GI50 (HOP-18): > 100 µM (inactive); GI50 (RXF 631): 30.5 µM (inactive); GI50 (XF498): 77.1 µM (inactive) |
| CS(=O)(=O)C1(Br)S(=O)(=O)OCCOS1(=O)=O | – | > 100 µM (inactive) | > 100 µM (inactive) | > 100 µM (inactive) | > 100 µM (inactive) | GI50 (DLD-1): > 100 µM (inactive); GI50 (XF498): > 100 µM (inactive) |
| NC(=O)CC[C@H]1C(=O)N=C(N)N1C(=O)OCc1ccccc1 | > 100 µM (inactive) | – | – | – | – | – |

| Compound | GI50 (BT-549) | GI50 (DMS-114) | GI50 (LXFL 529) | GI50 (SNB-78) | GI50 (DMS-273) | other results |
| --- | --- | --- | --- | --- | --- | --- |
| Nc1ccc2c(SCCSc3c4ccccc4nc4cc(N)ccc34)c3ccccc3nc2c1 | > 100 µM (inactive) | – | – | – | – | – |
| O=[N+]([O-])C1CC/C(=N/O)c2nonc21 (stereo not drawn) | > 10 µM (inactive) | – | – | – | – | – |
| CCCCc1c2c(nc3c1CCC/C3=C\c1ccccc1)C(=O)CCC2 | – | 20.7 µM (inactive) | 35.6 µM (inactive) | 19.6 µM (inactive) | 26.1 µM (inactive) | GI50 (HOP-18): 25.6 µM (inactive); GI50 (XF498): 12.1 µM (inactive) |
| CCCCCCOc1ccc(NC2=C(Cl)C(=O)c3cccnc3C2=O)cc1 | 3.22 µM (inactive) | – | – | – | – | – |
| COC(=O)c1cc(=O)nc2sc3cccc(C)c3n12 | 55.6 µM (inactive) | – | – | – | – | – |
| NNc1nnc(CCCCCCCCc2nnc(NN)n2N)n1N | 26.1 µM (inactive) | – | – | – | – | – |
| Cc1cc(C)c2c(O)cc(-c3ccc4ccccc4c3)nc2n1 | 40.5 µM (inactive) | – | – | – | – | – |
| Cc1cc2c(cc1C)C(=O)C1(C2)Cc2c(ccc(C)c2C)C1=O (stereo not drawn) | > 100 µM (inactive) | – | – | – | – | – |
| COC(=O)C1=CCC[C@H]2[C@@]1(COC(C)=O)CC[C@@H](C)[C@]2(C)CC(=O)c1ccoc1 | 10.9 µM (inactive) | – | – | – | – | – |
| Cn1c(=O)cc(NCCc2ccccc2)[nH]c1=O | 47.8 µM (inactive) | – | – | – | – | – |
| CCCCn1c2c(n(CCCC)c1=S)-c1c(n(CCCC)c(=S)n1CCCC)SSc1c(n(CCCC)c(=S)n1CCCC)-c1c(n(CCCC)c(=S)n1CCCC)SSc1c(n(CCCC)c(=S)n1CCCC)-c1c(n(CCCC)c(=S)n1CCCC)SS2 | 3.55 µM (inactive) | – | – | – | – | – |
| O=C(NCC(O)COc1ccccc1)c1ccccc1O (stereo not drawn) | 27.7 µM (inactive) | – | – | – | – | – |
| COc1ccc(-c2nc(-c3cnccn3)n(C3OC(CO)C(O)C(O)C3O)n2)cc1 (stereo not drawn) | > 100 µM (inactive) | – | – | – | – | – |
| OCCNCO | – | – | > 100 µM (inactive) | > 100 µM (inactive) | > 100 µM (inactive) | GI50 (XF498): > 100 µM (inactive) |
| Cc1c2c(c(C)n1-c1ccccc1)C(=O)N(CCN1CCN(c3cccc(C(F)(F)F)c3)CC1)C2=O | > 100 µM (inactive) | – | – | – | – | – |
| C1=CC(=P(c2ccccc2)(c2ccccc2)c2ccccc2)C=C1 | – | 4.65 µM (inactive) | 3.63 µM (inactive) | 7.5 µM (inactive) | 9.91 µM (inactive) | GI50 (DLD-1): 12.5 µM (inactive); GI50 (RXF 631): 19.4 µM (inactive); GI50 (XF498): 2.91 µM (inactive) |
